Assay results from US11214594B2, “Antimicrobial peptide having synergistic antibacterial effect with antibiotics on multidrug resistant bacteria, and use thereof” (priority 2016, dated 2022).
≈ marks a conversion by molar mass, not a printed value. Where two headings read alike, the source gives them in different places. Where a SMILES comes first, the peptide text is derived from it.

Assays:
[1] = tested on: MDRAB 12036; format: cell-based, Acinetobacter baumannii
Protocol: (§1) For the antibacterial activity, a minimal inhibitory concentration (MIC) of a peptide in which fungus bodies were not split in an MH medium with sufficient nutrients was measured.
(§2) Specifically, the strains described in the following [Table 2] were purchased and diluted with an MH medium such that the number of bacteria was 2×10^6 colony-forming units (CFUs), 100 μl of each of the diluted strains was aliquoted into a 96-well microtiter plate, and then 100 μl of a peptide solution diluted with the MH medium (solution diluted stepwise at 2: 1) was added to each well.

[2] = tested on: B. subtilis; assay: microbe, parasite or virus in culture; format: cell-based, Bacillus subtilis
Protocol: as §1, §2

[3] = tested on: A. baumannii; assay: MIC of antimicrobial peptide during combined treatment with antibiotic; format: cell-based, Acinetobacter baumannii
Protocol: (§3) Specifically, the strains described in [Table 2] were prepared and diluted with an MH medium such that the number of bacteria was 2×10^6 colony-forming units (CFUs) per 1 ml, 100 μl of the diluted strains was each aliquoted into a 96-well microtiter plate, and then 50 μl of a peptide solution diluted with the MH medium from the MIC value (solution diluted stepwise at 2: 1) was added to each well. Thereafter, the MIC value of each mixed solution was determined by diluting the antibiotic solution with the MH medium, adding 50 μl of the diluted solution to each well, and performing an experiment even under a reversed condition.

[4] = tested on: MRSA 3126; format: cell-based, Staphylococcus aureus
Protocol: as §1, §2

[5] = tested on: MRSA 3114; format: cell-based, Staphylococcus aureus
Protocol: as §1, §2

[6] = tested on: E. coli; format: cell-based, Escherichia coli; conditions: for Peptide MIC during treatment with erythromycin / Peptide MIC during treatment with linezolid / Peptide MIC during treatment with vancomycin: E. coli
Protocol: as §3

[7] = tested on: S. aureus; assay: microbe, parasite or virus in culture; format: cell-based, Staphylococcus aureus
Protocol: as §1, §2

[8] = tested on: MDRPA 2002; format: cell-based, Pseudomonas aeruginosa
Protocol: as §1, §2

[9] = tested on: MDRPA 2003; format: cell-based, Pseudomonas aeruginosa
Protocol: as §1, §2

[10] = tested on: P. aeruginosa; assay: microbe, parasite or virus in culture; format: cell-based, Pseudomonas aeruginosa
Protocol: as §1, §2

[11] = tested on: S. epidermidis; assay: microbe, parasite or virus in culture; format: cell-based, Staphylococcus epidermidis
Protocol: as §1, §2

[12] = tested on: S. typhimurium; assay: microbe, parasite or virus in culture; format: cell-based, Salmonella typhimurium
Protocol: as §1, §2

[13] = tested on: gram-positive bacteria; assay: MIC, summary statements for gram-positive bacteria; format: cell-based
Protocol: as §1, §2

[14] = tested on: E. coli; assay: MIC of antibiotic during combined treatment with antimicrobial peptide; format: cell-based, Escherichia coli; conditions: E. coli and A. baumannii; antibiotic MIC with papiliocin
Protocol: Thereafter, the MIC value of each mixed solution was determined by diluting the antibiotic solution with the MH medium, adding 50 μl of the diluted solution to each well, and performing an experiment even under a reversed condition.

[15] = tested on: MDREC 1238; format: cell-based, Escherichia coli
Protocol: as §1, §2

[16] = tested on: MDREC 1229; assay: microbe, parasite or virus in culture; format: cell-based, Escherichia coli
Protocol: as §1, §2

[17] = tested on: E. coli; assay: microbe, parasite or virus in culture; format: cell-based, Escherichia coli
Protocol: as §1, §2

[18] = tested on: gram-negative bacteria; assay: MIC, summary statements for gram-negative bacteria; format: cell-based; conditions: gram-negative bacteria
Protocol: as §1, §2

[19] = tested on: MDRAB 12035; assay: microbe, parasite or virus in culture; format: cell-based, Acinetobacter baumannii
Protocol: as §1, §2

[20] = tested on: A. baumannii; assay: microbe, parasite or virus in culture; format: cell-based, Acinetobacter baumannii
Protocol: as §1, §2

[21] = tested on: MDRST 8009; format: cell-based, Salmonella typhimurium; conditions: agent alone
Protocol: as §1, §2

[22] = tested on: MDRST 8007; assay: Minimal inhibitory concentration (MIC), single agent; format: cell-based, Salmonella typhimurium; conditions: agent alone
Protocol: as §1, §2

[23] = linezolid 32 μg/ml (Conc./MIC 1/8)
[24] = linezolid 64 μg/ml (Conc./MIC 1/4)
[25] = vancomycin 512 μg/ml (Conc./MIC 1/2)
[26] = vancomycin 1024 μg/ml (Conc./MIC 1)

CC[C@H](C)[C@H](NC(=O)CNC(=O)[C@H](CC(=O)O)NC(=O)[C@H](CCCNC(=N)N)NC(=O)[C@@H](NC(=O)[C@H](CC(N)=O)NC(=O)[C@H](CCCNC(=N)N)NC(=O)CNC(=O)[C@@H](NC(=O)[C@H](CCCCN)NC(=O)[C@H](CCC(=O)O)NC(=O)[C@@H](NC(=O)[C@H](CCCCN)NC(=O)[C@H](CCCCN)NC(=O)[C@H](Cc1ccccc1)NC(=O)[C@@H](NC(=O)[C@H](CCCCN)NC(=O)[C@H](Cc1c[nH]c2ccccc12)NC(=O)[C@@H](N)CCCNC(=N)N)[C@@H](C)CC)[C@@H](C)CC)C(C)C)C(C)C)C(=O)N[C@H](C(=O)N[C@@H](CCCCN)C(=O)N[C@@H](C)C(=O)NCC(=O)N1CCC[C@H]1C(=O)N[C@@H](C)C(=O)N[C@H](C(=O)N[C@@H](C)C(=O)N[C@H](C(=O)N[C@H](C(=O)NCC(=O)N[C@@H](CCC(N)=O)C(=O)N[C@@H](C)C(=O)N[C@@H](C)C(=O)N[C@H](C(=O)N[C@H](C(=O)N[C@H](C(=O)N[C@@H](CCCCN)C(N)=O)C(C)C)C(C)C)[C@@H](C)O)C(C)C)C(C)C)C(C)C)[C@@H](C)CC [Papiliocin, reference compound] (H-RWKIFKKIEKVGRNVRDGIIKAGPAVAVVGQAATVVK-NH2; N-terminus and C-terminus assumed)
Minimal inhibitory concentration MIC [1]: 16 µg/mL (≈ 4 µM)
Minimal inhibitory concentration MIC [2]: >128 µg/mL
Peptide MIC during treatment with erythromycin ([3]; erythromycin 4 μg/ml (Conc./MIC 1/8)): 8 µg/mL
Peptide MIC during treatment with erythromycin ([3]; erythromycin 8 μg/ml (Conc./MIC 1/4)): 4 µg/mL
Peptide MIC during treatment with erythromycin ([3]; erythromycin 16 μg/ml (Conc./MIC 1/2)): 4 µg/mL
Peptide MIC during treatment with erythromycin ([3]; erythromycin 32 μg/ml (Conc./MIC 1)): 0 µg/mL
Peptide MIC during treatment with linezolid [3, 23]: 8 µg/mL
Peptide MIC during treatment with linezolid [3, 24]: 4 µg/mL
Peptide MIC during treatment with linezolid ([3]; linezolid […] (Conc./MIC 1)): 0 µg/mL
Peptide MIC during treatment with linezolid ([3]; linezolid […] (Conc./MIC 1/2)): 4 µg/mL
Peptide MIC during treatment with vancomycin [3, 25]: 2 µg/mL
Peptide MIC during treatment with vancomycin [3, 26]: 0 µg/mL
Peptide MIC during treatment with vancomycin ([3]; vancomycin […] (Conc./MIC 1/4)): 2 µg/mL
Peptide MIC during treatment with vancomycin ([3]; vancomycin […] (Conc./MIC 1/8)): 4 µg/mL
Minimal inhibitory concentration MIC [4]; 3126: >128 µg/mL
Minimal inhibitory concentration MIC [5]; 3114: >128 µg/mL
Peptide MIC during treatment with erythromycin ([6]; erythromycin 16 μg/ml (Conc./MIC 1/8)): 4 µg/mL
Peptide MIC during treatment with erythromycin ([6]; erythromycin 32 μg/ml (Conc./MIC 1/4)): 4 µg/mL
Peptide MIC during treatment with erythromycin ([6]; erythromycin 64 μg/ml (Conc./MIC 1/2)): 4 µg/mL
Peptide MIC during treatment with erythromycin ([6]; erythromycin […] (Conc./MIC 1)): 0 µg/mL
Peptide MIC during treatment with linezolid [6, 23]: 8 µg/mL
Peptide MIC during treatment with linezolid [6, 24]: 4 µg/mL
Peptide MIC during treatment with linezolid ([6]; linezolid […] (Conc./MIC 1)): 0 µg/mL
Peptide MIC during treatment with linezolid ([6]; linezolid […] (Conc./MIC 1/2)): 4 µg/mL
Peptide MIC during treatment with vancomycin [6, 25]: 2 µg/mL
Peptide MIC during treatment with vancomycin [6, 26]: 0 µg/mL
Peptide MIC during treatment with vancomycin ([6]; vancomycin […] (Conc./MIC 1/4)): 2 µg/mL
Peptide MIC during treatment with vancomycin ([6]; vancomycin […] (Conc./MIC 1/8)): 4 µg/mL
Synergistic effect on peptide MIC when mixed with antibiotics (in words) ([6]; papiliocin as comparative control (Table 34)): does not have a synergistic effect
Minimal inhibitory concentration MIC [7]: >128 µg/mL
Minimal inhibitory concentration MIC [8]: 16 µg/mL (≈ 4 µM)
Minimal inhibitory concentration MIC [9]: 16 µg/mL (≈ 4 µM)
Minimal inhibitory concentration MIC [10]: 16 µg/mL (≈ 4 µM)
Minimal inhibitory concentration MIC [11]: >128 µg/mL
Minimal inhibitory concentration MIC [12]: 16 µg/mL (≈ 4 µM)
Antibacterial activity (in words) [13]: very low antibacterial activity
Synergistic effect of combination with the antibiotics (in words) [14]: does not have a great synergistic effect
Minimal inhibitory concentration MIC [15]: 16 µg/mL (≈ 4 µM)
Minimal inhibitory concentration MIC [16]: 8 µg/mL (≈ 2 µM)
Peptide MIC, single treatment [17]: 8 µg/mL
Minimal inhibitory concentration MIC ([17]; 16 h): 8 µg/mL (≈ 2 µM)
Antibacterial activity (in words) [18]: very high antibacterial activity
Minimal inhibitory concentration MIC [19]: 8 µg/mL (≈ 2 µM)
Minimal inhibitory concentration MIC [20]: 8 µg/mL (≈ 2 µM)
Peptide MIC, peptide alone [20]: 8 µg/mL

CC[C@H](C)[C@H](NC(=O)CN)C(=O)NCC(=O)N[C@@H](C)C(=O)N[C@H](C(=O)N[C@@H](CC(C)C)C(=O)N[C@@H](CCCCN)C(=O)N[C@H](C(=O)N[C@@H](CC(C)C)C(=O)N[C@H](C(=O)N[C@H](C(=O)NCC(=O)N[C@@H](CC(C)C)C(=O)N1CCC[C@H]1C(=O)N[C@@H](C)C(=O)N[C@@H](CC(C)C)C(=O)N[C@H](C(=O)N[C@@H](CO)C(=O)N[C@@H](Cc1c[nH]c2ccccc12)C(=O)N[C@H](C(=O)N[C@@H](CCCCN)C(=O)N[C@@H](CCCNC(=N)N)C(=O)N[C@@H](CCCCN)C(=O)N[C@@H](CCCNC(=N)N)C(=O)N[C@@H](CCC(N)=O)C(=O)N[C@@H](CCC(N)=O)C(N)=O)[C@@H](C)CC)[C@@H](C)CC)[C@@H](C)O)[C@@H](C)O)C(C)C)C(C)C [Melittin, reference compound]
Minimal inhibitory concentration MIC ([1]; MDRAB 12036, agent alone): 16 µg/mL (≈ 5.62 µM)
Minimal inhibitory concentration MIC ([4]; MRSA 3126, agent alone): 16 µg/mL (≈ 5.62 µM)
Minimal inhibitory concentration MIC ([5]; MRSA 3114, agent alone): 8 µg/mL (≈ 2.81 µM)
Minimal inhibitory concentration MIC ([8]; MDRPA 2002, agent alone): 16 µg/mL (≈ 5.62 µM)
Minimal inhibitory concentration MIC ([9]; MDRPA 2003, agent alone): 16 µg/mL (≈ 5.62 µM)
Minimal inhibitory concentration MIC [21]: 32 µg/mL (≈ 11.2 µM)
Minimal inhibitory concentration MIC ([11]; S. epidermidis, agent alone): 16 µg/mL (≈ 5.62 µM)
Minimal inhibitory concentration MIC ([15]; MDREC 1238, agent alone): 32 µg/mL (≈ 11.2 µM)
Minimal inhibitory concentration MIC ([16]; MDREC 1229, agent alone): 16 µg/mL (≈ 5.62 µM)
Minimal inhibitory concentration MIC ([19]; MDRAB 12035, agent alone): 8 µg/mL (≈ 2.81 µM)
Minimal inhibitory concentration MIC ([20]; A. baumannii, agent alone): 8 µg/mL (≈ 2.81 µM)
Minimal inhibitory concentration MIC [22]: 32 µg/mL (≈ 11.2 µM)
